Consider 7 molecules from patent US6867320B2, “Substituted phenylalkanoic acid derivatives and use thereof” (Asahi Kasei Pharma Corporation, priority 2002, dated 2005).

Experiment [1] relates to PGD2 production from IgE-stimulated RBL-2H3 cells. Briefly: Suppressing action on PGD2 production from IgE-stimulated RBL-2H3 cells. The class given is cell-based. The following applies: Rattus norvegicus, 10 min, IgE/DNP-BSA stimulated RBL-2H3 cells, read-out: PGD2 production suppression ratio. An outline of the steps:
(§1)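 Rat RBL-2H3 mastocytoma cells, sensitized 30 min with anti-DNP-BSA IgE, then given test compound in 0.5% FBS medium and stimulated with DNP-BSA (100 ng/ml final). Supernatant PGD2 and LTB4 were measured by EIA after 10 min. Suppression ratio is calculated against unstimulated and stimulant-only controls.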

Experiment [2] relates to zymosan-stimulated footpad edema. Briefly: Mouse zymosan-stimulated footpad edema reaction. The class given is in vivo. The settings on record: ICR female mice, oral 0.1 to 500 mg/kg, compared with positive control group. In outline: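 Female ICR mice (6–7 weeks, n=8) dosed orally at 0.1 to 500 mg/kg in 0.5% methylcellulose; 1 h later zymosan (1 mg/ml, 0.02 ml) injected s.c. into right hind footpad. Edema volume at 1 and 2 h gave AUC to 2 h; suppression (%) calculated against positive control AUC.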

For experiment [3], the system named is LTB4 production from IgE-stimulated RBL-2H3 cells. The experiment in a line: Suppressing action on LTB4 production from IgE-stimulated RBL-2H3 cells. The class given is cell-based. The settings on record: Rattus norvegicus, 10 min, IgE/DNP-BSA stimulated RBL-2H3 cells, read-out: LTB4 production suppression ratio. In outline: as §1
Experiment [4] has as its system IgE-stimulated footpad edema. The experiment in a line: Mouse IgE-stimulated footpad edema reaction. The class given is in vivo. The settings on record: C57BL/6 male mice, oral 0.1 to 500 mg/kg, compared with positive control group. In outline: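 Male C57BL/6 mice (9–11 weeks, n=5) sensitised one day earlier by footpad injection of anti-DNP-BSA IgE serum; compound given orally in 0.5% methylcellulose at 0.1 to 500 mg/kg, then DNP-BSA i.v. 2 h later. Footpad swelling measured at 10–30 min, expressed as AUC and % suppression versus vehicle control.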

Experiment [5] deals with PGE2 production from IL-1β-stimulated MG-63 cells. The experiment in a line: Suppressing action on PGE2 production from IL-1β-stimulated MG-63 cells. The following applies: Homo sapiens, IL-1β 1 ng/ml, 18 hours, read-out: PGE2 production suppression ratio. The class given is cell-based. An outline of the steps: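 PGE2 in 18 h supernatants was quantified by EIA and expressed as % suppression relative to IL-1β-only and unstimulated controls. Cells were the MG-63 osteosarcoma line, plated at 2×10^4/well, given compound in 0.5% FBS EMEM, then 1 ng/ml IL-1β final.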

Consider `CCn1ccc2cc(-c3cc(CCC(=O)O)ccc3OC3CCCCC3)ccc21` [Compound 248, 3-[4-cyclohexyloxy-3-(1-ethyl-1H-indol-5-yl)phenyl]propionic acid], for which the inhibition at 0.4 µM in experiment [1], in experiment [3] and in experiment [5] was not below 50% each time. Moreover, in experiment [2], the “suppression of footpad edema caused by zymosan” value (“suppression … by zymosan” for short) was “suppressed footpad edema”. For the same molecule, the “suppression of footpad edema caused by IgE stimulation” value (“suppression … by IgE stimulation” for short) in experiment [4] is listed as “suppressed the footpad edema”.
`O=C(O)CCc1cc(F)c(OCC2CCCC2)c(-c2ccc3[nH]ccc3c2)c1` [Compound 261, 3-[4-cyclopentylmethyloxy-3-fluoro-5-(1H-indol-5-yl)phenyl]propionic acid]: the inhibition at 0.4 µM in experiment [1], in experiment [3] and in experiment [5] was not below 50% throughout. The “suppression … by zymosan” value in experiment [2] was “suppressed footpad edema”. Besides, the “suppression … by IgE stimulation” value in experiment [4] is recorded as “suppressed the footpad edema”.
As for `O=C(O)CCc1ccc(OCC2CCCC2)c(-c2ccc3sccc3c2)c1` [Compound 281, 3-[3-(benzo[b]thiophen-5-yl)-4-cyclopentylmethyloxyphenyl]propionic acid], the inhibition at 0.4 µM in experiment [1], in experiment [3] and in experiment [5] was not below 50% in each case. In experiment [2], the “suppression … by zymosan” value is reported as “suppressed footpad edema”. The “suppression … by IgE stimulation” value in experiment [4] is recorded as “suppressed the footpad edema”.
In the case of `Nc1nc2ccc(-c3cc(CCC(=O)O)ccc3OCC3CCCCC3)cc2s1` [Compound 289, 3-[3-(2-aminobenzothiazol-6-yl)-4-cyclohexylmethyloxyphenyl]propionic acid], the inhibition at 0.4 µM in experiment [1], in experiment [3] and in experiment [5] was not below 50% each time. For the same molecule, the “suppression … by zymosan” value in experiment [2] was “suppressed footpad edema”. Further, the “suppression … by IgE stimulation” value in experiment [4] is “suppressed the footpad edema”.
As for `Nc1nc2ccc(-c3cc(CCC(=O)O)ccc3OC3CCCC3)cc2s1` [Compound 293, 3-[3-(2-aminobenzothiazol-6-yl)-4-cyclopentyloxyphenyl]propionic acid], the inhibition at 0.4 µM in experiment [1], in experiment [3] and in experiment [5] was not below 50% throughout. In experiment [2], the “suppression … by zymosan” value is on record as “suppressed footpad edema”. Moreover, the “suppression … by IgE stimulation” value in experiment [4] is given as “suppressed the footpad edema”.
Turning to `O=C(O)CCc1ccc(OCC2CCCC2)c(-c2ccc3ncsc3c2)c1` [Compound 299, 3-[3-(benzothiazol-6-yl)-4-cyclopentylmethyloxyphenyl]propionic acid], the inhibition at 0.4 µM in experiment [1], in experiment [3] and in experiment [5] was not below 50% throughout. Further, the “suppression … by zymosan” value in experiment [2] was “suppressed footpad edema”. Moreover, the “suppression … by IgE stimulation” value in experiment [4] was “suppressed the footpad edema”.
As for `O=C(O)CCc1ccc(OCC2CCCCC2)c(-c2cnc3ccccc3c2)c1` [Compound 317, 3-[4-cyclohexylmethyloxy-3-(quinolin-3-yl)phenyl]propionic acid], the inhibition at 0.4 µM in experiment [1], in experiment [3] and in experiment [5] was not below 50% in each case. Moreover, in experiment [2], the “suppression … by zymosan” value is “suppressed footpad edema”. Besides, the “suppression … by IgE stimulation” value in experiment [4] is on record as “suppressed the footpad edema”.
